{"source": "patent US8012935B2", "about": "“Synthetic peptides and methods for treating cancer invasion and metastasis” (priority 2002, dated 2011)", "key": {"[1]": {"test_system": "human melanoma cells A2058", "experiment": "MATRIGEL invasion and migration by melanoma cells A2058", "format": "cell-based", "protocol": "The inhibitory effects of these oligopeptides on the MATRIGEL™ invasion and migration through the MATRIGEL™ membrane by various cancer cells were evaluated using “Improved MATRIGEL™ Invasion Chamber” (Becton Dickinson, USA).\n(§1) The studies were conducted using “Improved MATRIGEL™ Invasion Chambers” (Becton Dickinson, USA).\n(§2) In studies with human melanoma cells, human fibroblasts-NHDF (Clonetics) were seeded on MATRIGEL™ inserts and allowed to reach confluence. This was done to closely simulate in vivo conditions surrounding cancer cells in the body. Human melanoma cells A2058 were then seeded on the insert. Conditioned media from the fibroblast culture supplemented with various levels of chosen oligopeptide were added to the chamber. The system was incubated for about 24 hours. At the end of the period the cells on the upper surface of the insert were wiped off. The cells that had invaded the MATRIGEL™ membrane and had migrated to the lower surface of the insert were stained with “quick stain” and were counted under the microscope. […] The inhibitory activity of the control was considered as “0”. The media from invasion assays were saved for zymogram studies."}, "[2]": {"test_system": "human breast cancer cells MDA-MB 231", "experiment": "MATRIGEL invasion by breast cancer cells MDA-MB 231", "format": "cell-based", "conditions": "150 μM", "protocol": "as §1, §2\n(§3) In studies with human breast cancer cells MCF7 the procedure was essentially similar to that used for melanoma cells, except that MRC5 (ATCC) fibroblasts were used in place of NHDF.\nIn studies with human breast cancer cells MDA-MB 231 the fibroblast-MRC5 cells were plated in the wells. The rest of the procedure remained the same as in studies with MCF7 cells."}, "[3]": {"test_system": "human breast cancer cells MCF7", "experiment": "MATRIGEL invasion and migration by breast cancer cells MCF7", "format": "cell-based", "conditions": "for inhibition of MATRIGEL invasion: MCF7", "protocol": "as §1, §2, §3"}, "[4]": {"test_system": "MMP-2 secreted by the cancer cells", "experiment": "Zymogram studies of media from invasion assays", "format": "cell-based, human", "conditions": "zymogram gels", "protocol": "as §2\nThe media (25-30 μl) from various wells in invasion studies were applied to NOVEX® zymogram gels (Invitrogen). The gels were developed and stained as recommended by the manufacturer. The matrix metalloproteinases (MMPs) were identified on the basis of their known molecular weights."}, "[5]": {"conditions": "comparison of oligopeptides (FIG. 2), concentration not given, about 24 hours"}}}
{"sequence": "LPPDVQRVD (listed as Homo sapiens)", "values": [{"measurement": "inhibition of MATRIGEL invasion", "setting": "[1]; [5]", "value": "about 20%"}]}
{"sequence": "TMRKPRCGNPDVAN (listed as Homo sapiens) [reference compound]", "values": [{"measurement": "inhibition of MATRIGEL invasion", "setting": "[1]; [5]", "value": "about 11%"}]}
{"sequence": "GDVAPKTDKE (listed as Homo sapiens)", "values": [{"measurement": "inhibition of MATRIGEL invasion", "setting": "[1]; 100 μM concentration", "value": "did not show any activity"}]}
{"sequence": "PRKPKWDK (listed as Homo sapiens) [synthetic oligopeptide corresponding to amino acids 85 to 92 of MMP-2]", "values": [{"measurement": "inhibition of MATRIGEL invasion", "setting": "[2]", "value": "about 94%"}, {"measurement": "inhibition of MATRIGEL invasion", "setting": "[3]; 150 μM (FIG. 4)", "value": "about 70%"}, {"measurement": "inhibition of MATRIGEL invasion", "setting": "[3]; 200 μM (FIG. 4)", "value": "about 90%"}, {"measurement": "inhibition of the invasion of cancer cells", "setting": "[3]; summary statement, cell line and concentration not stated", "value": "about 90%"}, {"measurement": "inhibitory effect on the amount of MMP-2 secreted", "setting": "[4]", "value": "did not show any inhibitory effect"}, {"measurement": "inhibition of MATRIGEL invasion", "setting": "[1]; 50 μM (FIG. 3)", "value": "about 37%"}, {"measurement": "inhibition of MATRIGEL invasion", "setting": "[1]; 100 μM concentration", "value": 63, "unit": "%"}, {"measurement": "inhibition of MATRIGEL invasion", "setting": "[1]; 150 μM (FIG. 3)", "value": 73, "unit": "%"}, {"measurement": "inhibition of MATRIGEL invasion", "setting": "[1]; [5]", "value": 73, "unit": "%"}]}
